In patent EP2880993A1, “Method of achieving memory and learning improvement by the administration of sialic acid” (ABBOTT LABORATORIES, priority 2013, dated 2015):
“Also recorded” adds a separate entry of the source.

Assays:
[1] = tested on: rats; experiment: Y-maze testing, Example 2 (Acquisition Trial and Retention Trial); type: in vivo, Sprague-Dawley rat; conditions: 14 months old
Protocol: A Y-maze test was performed when the rats were 14 months old, which corresponds to 50-55 years old in humans. Eight rats in each group were tested. The Y-maze testing was performed in two phases: an Acquisition Trial and a Retention Trial. Rats in each group were evaluated in the Y-maze.
During the Acquisition Trial, one of the three arms of the Y-maze was blocked, and animals were allowed to explore the other two arms for 15 minutes. The Retention Trial took place 4 hours after the Acquisition Trial. During the Retention Trial, all three arms were open and animals were allowed to explore for 5 minutes. The amount of time each animal spent at the start of the Y-maze and each arm was evaluated.

[2] = tested on: rats; experiment: Intellicage testing, Example 2; type: in vivo, Sprague-Dawley rat; conditions: 14-15 months old, compared with Control group
Protocol: IntelliCage® (NewBehavior AG) is a computer-based, fully automated testing apparatus used to analyze spontaneous and learned behavior. Eight rats in each group were tested. The rats were 14-15 months old, which corresponds to 55-60 years old for humans, when these tests were performed. Animals remain in the cage during several days and behavior is recorded during the entire testing period. Different paradigms can be tested by restricting water access to specific places and time periods. Each animal is assigned a corner where it can access water. Access to the water is only allowed during discrete time periods. Thus, each animal must learn when access to water bottles is allowed and which corner, out of four, has been assigned to it. Access to the corner is controlled by a door that opens only when the assigned rat enters its nose in a hole. […] Access to non-assigned corners remain blocked except during two 90 min periods during the night.

[3] = tested on: rats; experiment: Novel Object Recognition testing, Example 2; type: in vivo, Sprague-Dawley rat; conditions: 13 months old; retention test one day after acquisition phase; FIG. 5
Protocol: Perirhinal cortex and hippocampus are involved in the novel object recognition task. Novel Object Recognition Testing was performed when the rats were 13 months old, which corresponds to 45-50 years old for humans. Eight animals were tested.
During a habituation phase of the test, the rats were allowed to explore an "arena" for 20 minutes per day for 3 consecutive days. The arena was a black, open plastic chamber. Next, an acquisition phase took place wherein the animals interfaced with two different objects. These object are defined as "familiar." The rats were allowed to the arena while the familiar objects were present for 10 minutes. One day after the acquisition phase, a retention test was performed on the rats, wherein one of the familiar objects was replaced by a new object. The new object is defined as "novel." The rats were allowed to explore the arena for 5 minutes during the retention test. In theory, animals that remember familiar objects will spend more time exploring the novel object than the familiar one.

[4] = tested on: hippocampal CA3-CAl areas; experiment: Long-term potentiation (LTP) testing in vivo, Example 2; set-up: species or system Sprague-Dawley rat; conditions: 11 months old, FIG. 4; for fEPSP values / LTP response evoked after the HFS train, in words: compared with Control group (and NeuAc group)
Protocol: In order to establish the role of sialylated oligosaccharides in cognition, rat pups were supplemented with 6'-sialyllactose (6'-SL) from postnatal day 3 (PND3) and their learning and memory abilities were analyzed later in life. Rat performance in a classical spatial cognitive task (Y-maze), Novel object Recognition, protocol of spatial learning in the novel Intellicage® system, and Morris water maze were carried out once the animals reached 12 and 14 months of age. LTP response in hippocampus was also evaluated in vivo once the animals reached 11 months of age. The Y-maze, Object Recognition and the IntelliCage® allow the determination of spatial orientation and memory capabilities of experimental animals. The same female rats performed all the tests.
The pups from the second cohort were divided into three groups and given the following designations: the 6'-SL supplemented group, the NeuAc supplemented group and the control group. Initially, each group comprised 20 male pups. Due to premature deaths there were a total of 14 pups in the 6'-SL supplemented group at the end of the lactation. The 6'-SL supplemented group received 6'-SL supplementation (8 doses/day) in order to reach the same sialic acid levels as normally reared pups. The amount of 6'-SL given to the 6'-SL supplemented group was selected to follow the change in concentration of sialic acid in rat milk, ranging from 1.5 g/Kg body weight on day 3 to 0.5 g/Kg body weight at weaning. The maximum amount of sialic acid given to a pup was a maximum of 2 mg/Kg on day 8.
There were a total of 16 male pups in the NeuAc supplemented group at the end of lactation. The NeuAc supplemented group received NeuAc supplementation in order to reach the same sialic acid levels as normally reared pups. The amount of NeuAc given to the NeuAc supplemented group was selected to follow the change in concentration of sialic acid in rat milk, ranging from 1.5 g/Kg body weight on day 3 to 0.5 g/Kg body weight at weaning. The maximum amount of sialic acid given to any pup was 2 mg/Kg on day 8,
Long-term potentiation (LTP) measurements were performed in each of the three groups, i.e., the 6'-SL Supplemented Group, the NeuAc -Supplemented Group and the Control Group. The testing was done while the animals were alive and 11 months old, which is about age 40 in human years. Experiments were done in order to determine the functionality of hippocampus in vivo. […]
To evoke LTP, the following high frequency stimulation (HFS) protocol was used: each animal was subjected to five 200 Hz, 100 ms trains of pulses at a rate of l/s. […] After the HFS protocol, fEPSPs were recorded again for 30 minutes. […]
The HFS train is indicated by the downward arrow. […] The baseline was recorded at 15, 10, and 5 minutes before HFS.

In the case of `CC(=O)NC1C(O)CC(OCC2OC(OC3C(CO)OC(O)C(O)C3O)C(O)C(O)C2O)(C(=O)O)OC1C(O)C(O)CO` (centres unmarked) [6'-SL, 6'-sialyllactose], the “latency to blocked arm” value ([1]; Retention Trial 4 hours after Acquisition Trial, compared with Control group, FIG. 6) is reported as “lower values of latency to the blocked arm in comparison with Control group”, the “percentage of animals visiting the previously blocked arm first” value ([1]; Retention Trial, compared with control animals, FIG. 7) is reported as “significantly higher than that of the control animals” and the speed of learning [2] is reported as “seemed to learn faster than the Control group”. For the same molecule, the “visits to the correct corner versus the incorrect corner (performance)” value ([2]; FIG. 8) was “performed better compared to the Control group”, the “time spent exploring the novel object versus the familiar object” value [3] was “significantly more time visiting the novel object than the familiar one; also recorded: distinguish better between the familiar and novel object” and the “persistence of LTP induction” value ([4]; after the second day, followed for up to 4 days) was “remaining; also recorded: remained at elevated levels even 4 days post stimulus”. The “fEPSP values / LTP response evoked after the HFS train, in words” value [4] was “significantly larger” and the “fEPSP values / LTP response evoked after the HFS train, in words” value ([4]; listed as 6'SL) was “strongest response; also recorded: significantly higher LTP response levels than those of the control group”.
